Measurements as given in patent US4221794A, “Method of imparting immunomodulating and antiviral activity” (Newport Pharmaceuticals International, Inc., priority 1979, dated 1980).
In brackets after ≈: the same amount, converted by molar mass. Like-named read-outs stand apart in the source and are kept apart here.

How the values were obtained:
influenza virus = assay: microbe, parasite or virus in culture; assay type: cell-based, influenza virus Type A/USSR 90 (HeLa cell cultures)
L-1210 leukemic cells = assay: Anti-leukemic activity, inhibition of L-1210 growth; assay type: cell-based, mouse
Procedure: Anti-Leukemic Activity (Inhibition of L-1210 Growth)
Leukemic cells isolated from mice bearing the L-1210 tumor are cultured in vitro and their growth can be measured by counting the number of cells in the culture over a period of time. The incorporation of a test substance into the media will prevent the growth of the leukemic cells, an indication of an effective anti-leukemic agent.
I50 (concentration of drug inhibiting growth of L-1210) by % for the tested compounds was as follows:
To Measure Inhibition of Leukemic Cell (L-1210) Growth
Check to see that there is adequate cell growth in the stock cultures. Use cells 48-72 hours after transfers are done.
Weigh out the drugs at 50 times the desired final concentration and made serial dilutions.
Make up the final medium using 500 mls McCoy's 5A medium, 15% fetal calf serum, 5 mls penicillin-streptomycin solution, and 5 mls antibiotic-antimycotic solution and let it stand at room temperature.
Using sterile technique, add 0.1 ml of the drug dilutions to each tube.
Add an appropriate quantity of cells to the prepared medium. After mixing, remove a 0.5 ml sample, place it in a vial containing […] of saline, and count it on the Coulter Counter. Multiply the count by 40 to compensate for the 40 fold dilution (0.5 ml into […] and record the inoculum.
Add 5 mls of cell suspension to each tube. Swirl the bottle every 4 tubes to insure a more uniform distribution of cells.
Tighten the caps and place in the CO2 incubator at 36°-38° for 96 hours.
After 96 hours remove the tubes from the incubator and count the contents of each on the Coulter Counter. Multiply all counts by 40 and average the four counts for each drug dilution. If the count is less than the inoculum, record 100% inhibition. If the count is greater than the average of the eight control counts, record 0% inhibition. For all other counts use the following formula: [formula] 100%-% servival=inhibition of growth due to treatment.

[1] = Phase solubility study with DIP.PAcBA; assay type: physicochemical; details: constant pH
Excerpt: This is indicative of an interaction occuring in solution to yield a complex.

[2] = test system: Influenza A Swine 1976 (Hlsw -N1); assay type: cell-based; details: A/Swine/76 (Hlsw N1)
A/Texas/77 (H3 N2) = assay: Inhibition of influenza virus replication, A/Texas/77; assay type: cell-based, influenza virus A/Texas/77
A/Dunedin/73 (H3 N2) = assay: Inhibition of influenza virus replication, A/Dunedin/73; assay type: cell-based, influenza virus A/Dunedin/73
A/Jap/305 (H2 N2) = assay: Inhibition of influenza virus replication, A/Jap/305; assay type: cell-based, influenza virus A/Jap/305
A/PR8 (H0 N1) = assay: Inhibition of influenza virus replication, A/PR8; assay type: cell-based
A2 Hong Kong (H2 N2) = assay: Inhibition of influenza virus replication, A2 Hong Kong; assay type: cell-based

Compound: CCCCCC[C@H]([C@H](C)O)n1cnc2c(=O)[nH]cnc21 (relative stereo) [NPT 15392, ERYTHRO-9-(2-HYDROXY-3-NONYL)HYPOXANTHINE]
- % Inhibition of Hemadsorption Foci (influenza virus; Test Compound Conc. <10 μg/ml): 86%
- inhibition at 100 µg/mL (influenza virus; unidentified influenza virus, read-out: % Inhibition of Hemadsorption Foci, Test Compound Conc. >100 μg/ml): 100%
- IC50 (L-1210 leukemic cells; Mus musculus, L1210, tissue culture, read-out: 50% inhibition of L-1210 cells): 28 µg/mL (≈ 101 µM)
- solubility with DIP.PAcBA (phase solubility) [1]: increased solubility at increasing concentrations of DIP.PAcBA

Compound: CCCCCC[C@H]([C@H](C)O)n1cnc2c(=O)[nH]cnc21 (relative stereo) [NPT 15410]
- % Inhibition of Hemadsorption Foci (influenza virus; Test Compound Conc. <10 μg/ml): 58%
- % Inhibition of Hemadsorption Foci (influenza virus; Test Compound Conc. >100 μg/ml): 96%
- Inhibition of influenza virus replication ([2]; 1.0-10.0 μg/ml): ++ (30-50% Inhibition)
- Inhibition of influenza virus replication ([2]; 10.0-100 μg/ml): ++++ (>70% Inhibition)
- Inhibition of influenza virus replication ([2]; .01-1.0 μg/ml): +++ (50-70% Inhibition)
- Inhibition of influenza virus replication ([2]; >100 μg/ml): ++++ (>70% Inhibition)
- Inhibition of influenza virus replication (A/Texas/77 (H3 N2); A/Texas/77, 1.0-10.0 μg/ml): + (20-30% Inhibition)
- Inhibition of influenza virus replication (A/Texas/77 (H3 N2); A/Texas/77, 10.0-100 μg/ml): ++++ (>70% Inhibition)
- Inhibition of influenza virus replication (A/Texas/77 (H3 N2); A/Texas/77, .01-1.0 μg/ml): ++ (30-50% Inhibition)
- Inhibition of influenza virus replication (A/Texas/77 (H3 N2); A/Texas/77, >100 μg/ml): ++++ (>70% Inhibition)
- Inhibition of influenza virus replication (A/Dunedin/73 (H3 N2); A/Dunedin/73, 10.0-100 μg/ml): ± (10-20% Inhibition)
- Inhibition of influenza virus replication (A/Dunedin/73 (H3 N2); A/Dunedin/73, >100 μg/ml): ++ (30-50% Inhibition)
- Inhibition of influenza virus replication (A/Jap/305 (H2 N2); A/Jap/305, 10.0-100 μg/ml): ++++ (>70% Inhibition)
- Inhibition of influenza virus replication (A/Jap/305 (H2 N2); A/Jap/305, >100 μg/ml): ++++ (>70% Inhibition)
- Inhibition of influenza virus replication (A/PR8 (H0 N1); A/PR8, 1.0-10.0 μg/ml): ++ (30-50% Inhibition)
- Inhibition of influenza virus replication (A/PR8 (H0 N1); A/PR8, 10.0-100 μg/ml): ++++ (>70% Inhibition)
- Inhibition of influenza virus replication (A/PR8 (H0 N1); A/PR8, .01-1.0 μg/ml): ++ (30-50% Inhibition)
- Inhibition of influenza virus replication (A/PR8 (H0 N1); A/PR8, >100 μg/ml): +++ (50-70% Inhibition)
- Inhibition of influenza virus replication (A2 Hong Kong (H2 N2); 10.0-100 μg/ml): ++ (30-50% Inhibition)
- Inhibition of influenza virus replication (A2 Hong Kong (H2 N2); >100 μg/ml): +++ (50-70% Inhibition)
- I50 (concentration of drug inhibiting growth of L-1210) (L-1210 leukemic cells; 96 hours): 54 micrograms/ml
- Potentiation Anti-Leukemia by DIP.PAcBA salt (L-1210 leukemic cells; salt compared with parent compound): Yes
- 50% inhibition of L-1210 cells (L-1210 leukemic cells; tissue culture): 54 µg/mL
